Experimental data from ChEMBL document CHEMBL3046648, “Herbicidally Active N-(1-Arylethenyl)-2-chloroacetamides Bearing an Alkyloxyalkyl Moiety” (1991).
“And” between values parts separate entries of the source, which are not always exact repeats. Equal values may be shown once.

Columns and labels:
Type in all cases: functional
[1] = test system: Schoenoplectiella juncoides; test: Herbicidal activity against Schoenoplectiella juncoides assessed as killing at 1 g/a at 25 degC measured after 3 weeks
Echinochloa oryzicola [2] = test: Herbicidal activity against Echinochloa oryzicola assessed as killing at 1 g/a at 25 degC measured after 3 weeks
[3] = Herbicidal activity against annual broad-leaf weeds assessed as killing at 1 g/a at 25 degC measured after 3 weeks
[4] = test system: Schoenoplectiella juncoides; test: Herbicidal activity against Schoenoplectiella juncoides assessed as killing at 10 g/a at 25 degC measured after 3 weeks
Cyperus difformis [5] = test: Herbicidal activity against Cyperus difformis assessed as killing at 10 g/a at 25 degC measured after 3 weeks
[6] = Herbicidal activity against annual broad-leaf weeds assessed as killing at 10 g/a at 25 degC measured after 3 weeks
Cyperus difformis [7] = test: Herbicidal activity against Cyperus difformis assessed as killing at 1 g/a at 25 degC measured after 3 weeks
Pontederia vaginalis [8] = test: Herbicidal activity against Monochoria vaginalis assessed as killing at 1 g/a at 25 degC measured after 3 weeks
Pontederia vaginalis [9] = test: Herbicidal activity against Monochoria vaginalis assessed as killing at 10 g/a at 25 degC measured after 3 weeks
Echinochloa oryzicola [10] = test: Herbicidal activity against Echinochloa oryzicola assessed as killing at 10 g/a at 25 degC measured after 3 weeks
Setaria viridis [11] = test: Herbicidal activity against Setaria viridis (green foxtail) assessed as killing at 10 g/a at 25 degC measured after 2 weeks
Setaria viridis [12] = test: Herbicidal activity against Setaria viridis (green foxtail) assessed as killing at 2.5 g/a at 25 degC measured after 2 weeks
Kummerowia striata [13] = test: Herbicidal activity against Kummerowia striata assessed as killing at 2.5 g/a at 25 degC measured after 2 weeks
Poa annua [14] = test: Herbicidal activity against Poa annua assessed as killing at 10 g/a at 25 degC measured after 2 weeks
[15] = test system: Amaranthus blitum subsp. oleraceus; test: Herbicidal activity against Amaranthus blitum subsp. oleraceus assessed as killing at 10 g/a at 25 degC measured after 2 weeks
Kummerowia striata [16] = test: Herbicidal activity against Kummerowia striata assessed as killing at 10 g/a at 25 degC measured after 2 weeks
Stellaria media [17] = test: Herbicidal activity against Stellaria media assessed as killing at 2.5 g/a at 25 degC measured after 2 weeks
Digitaria ciliaris [18] = test: Herbicidal activity against Digitaria ciliaris assessed as killing at 2.5 g/a at 25 degC measured after 2 weeks
Poa annua [19] = test: Herbicidal activity against Poa annua assessed as killing at 2.5 g/a at 25 degC measured after 2 weeks
Digitaria ciliaris [20] = test: Herbicidal activity against Digitaria ciliaris assessed as killing at 10 g/a at 25 degC measured after 2 weeks
Stellaria media [21] = test: Herbicidal activity against Stellaria media assessed as killing at 10 g/a at 25 degC measured after 2 weeks
[22] = test system: Amaranthus blitum subsp. oleraceus; test: Herbicidal activity against Amaranthus blitum subsp. oleraceus assessed as killing at 2.5 g/a at 25 degC measured after 2 weeks

Compound: COCCN(C(=O)CCl)C(=C(C)C)c1ccc(Cl)cc1
- Activity [1]: 80%
- Activity (Echinochloa oryzicola [2]): 100%
- Activity [3]: 100%
- Activity [4]: 100%
- Activity (Cyperus difformis [5]): 100%
- Activity [6]: 100%
- Activity (Cyperus difformis [7]): 100%
- Activity (Pontederia vaginalis [8]): 100%
- Activity (Pontederia vaginalis [9]): 100%
- Activity (Echinochloa oryzicola [10]): 100%

Compound: CCOCCCN(C(=O)CCl)C(=C(C)C)c1ccccc1
- Activity [1]: 40%
- Activity (Echinochloa oryzicola [2]): 80%
- Activity [3]: 40%
- Activity [4]: 100%
- Activity (Cyperus difformis [5]): 100%
- Activity [6]: 100%
- Activity (Cyperus difformis [7]): 60%
- Activity (Pontederia vaginalis [8]): 0%
- Activity (Pontederia vaginalis [9]): 100%
- Activity (Echinochloa oryzicola [10]): 100%

Compound: CCOCCN(C(=O)CCl)C(=C(C)C)c1ccccc1 [PETHOXAMID]
- Activity (Setaria viridis [11]): 100%
- Activity (Setaria viridis [12]): 100%
- Activity (Kummerowia striata [13]): 80%
- Activity (Poa annua [14]): 100%
- Activity [15]: 100%
- Activity [1]: 100%
- Activity (Echinochloa oryzicola [2]): 100%
- Activity (Kummerowia striata [16]): 80%
- Activity [4]: 100%
- Activity (Stellaria media [17]): 80%
- Activity (Cyperus difformis [5]): 100%
- Activity [6]: 100%
- Activity (Digitaria ciliaris [18]): 100%
- Activity (Cyperus difformis [7]): 100%
- Activity (Pontederia vaginalis [8]): 100%
- Activity (Pontederia vaginalis [9]): 100%
- Activity (Poa annua [19]): 80%
- Activity (Digitaria ciliaris [20]): 100%
- Activity (Stellaria media [21]): 100%
- Activity (Echinochloa oryzicola [10]): 100%
- Activity [22]: 100%

Compound: CCC(C)=C(c1ccccc1)N(CCOC)C(=O)CCl
- Activity [1]: 0%
- Activity (Echinochloa oryzicola [2]): 80%
- Activity [3]: 40%
- Activity [4]: 100%
- Activity (Cyperus difformis [5]): 100%
- Activity [6]: 100%
- Activity (Cyperus difformis [7]): 80%
- Activity (Pontederia vaginalis [8]): 0%
- Activity (Pontederia vaginalis [9]): 100%
- Activity (Echinochloa oryzicola [10]): 100%

Compound: COCCN(C(=O)CCl)C(=C(C)C)c1cc(C)ccc1C
- Activity [1]: 80%
- Activity (Echinochloa oryzicola [2]): 100%
- Activity [3]: 20%
- Activity [4]: 100%
- Activity (Cyperus difformis [5]): 100%
- Activity [6]: 100%
- Activity (Cyperus difformis [7]): 80%
- Activity (Pontederia vaginalis [8]): 40%
- Activity (Pontederia vaginalis [9]): 100%
- Activity (Echinochloa oryzicola [10]): 100%

Compound: COCCN(C(=O)CCl)C(=C(C)C)c1ccc(C)cc1
- Activity [1]: 80%
- Activity (Echinochloa oryzicola [2]): 80%
- Activity [3]: 80%
- Activity [4]: 100%
- Activity (Cyperus difformis [5]): 100%
- Activity [6]: 100%
- Activity (Cyperus difformis [7]): 100%
- Activity (Pontederia vaginalis [8]): 60%
- Activity (Pontederia vaginalis [9]): 100%
- Activity (Echinochloa oryzicola [10]): 100%

Compound: CCc1cccc(C)c1N(C(=O)CCl)C(C)COC (configuration not stated) [METOLACHOR]
- Activity (Setaria viridis [11]): 100%
- Activity (Setaria viridis [12]): 80%
- Activity (Kummerowia striata [13]): 100%
- Activity (Poa annua [14]): 100%
- Activity [15]: 80%
- Activity (Kummerowia striata [16]): 80%
- Activity (Stellaria media [17]): 60%
- Activity (Digitaria ciliaris [18]): 100%
- Activity (Poa annua [19]): 80%
- Activity (Digitaria ciliaris [20]): 100%
- Activity (Stellaria media [21]): 60%
- Activity [22]: 100%

Compound: COCCN(C(=O)CCl)C(=C(C)C)c1ccc(Oc2ccccc2)cc1
- Activity [1]: 60%
- Activity (Echinochloa oryzicola [2]): 100%
- Activity [3]: 100%
- Activity [4]: 100%
- Activity (Cyperus difformis [5]): 100%
- Activity [6]: 100%
- Activity (Cyperus difformis [7]): 100%
- Activity (Pontederia vaginalis [8]): 100%
- Activity (Pontederia vaginalis [9]): 100%
- Activity (Echinochloa oryzicola [10]): 100%

Compound: COCCN(C(=O)CCl)C(=C(C)C)c1ccc(Br)cc1
- Activity [1]: 80%
- Activity (Echinochloa oryzicola [2]): 100%
- Activity [3]: 80%
- Activity [4]: 100%
- Activity (Cyperus difformis [5]): 100%
- Activity [6]: 100%
- Activity (Cyperus difformis [7]): 100%
- Activity (Pontederia vaginalis [8]): 100%
- Activity (Pontederia vaginalis [9]): 100%
- Activity (Echinochloa oryzicola [10]): 100%

Compound: COCCN(C(=O)CCl)C(=C(C)C)c1cccc(Oc2ccccc2)c1
- Activity [1]: 60%
- Activity (Echinochloa oryzicola [2]): 100%
- Activity [3]: 40%
- Activity [4]: 60%
- Activity (Cyperus difformis [5]): 100%
- Activity [6]: 100%
- Activity (Cyperus difformis [7]): 80%
- Activity (Pontederia vaginalis [8]): 0%
- Activity (Pontederia vaginalis [9]): 100%
- Activity (Echinochloa oryzicola [10]): 100%

Compound: COCCN(C(=O)CCl)C(=C(C)C)c1ccc(SC)cc1
- Activity [1]: 0%
- Activity (Echinochloa oryzicola [2]): 40%
- Activity [3]: 100%
- Activity [4]: 100%
- Activity (Cyperus difformis [5]): 100%
- Activity [6]: 100%
- Activity (Cyperus difformis [7]): 60%
- Activity (Pontederia vaginalis [8]): 0%
- Activity (Pontederia vaginalis [9]): 100%
- Activity (Echinochloa oryzicola [10]): 100%

Compound: C=CCOCC(C)N(C(=O)CCl)C(=C(C)C)c1ccccc1 (configuration not stated)
- Activity [1]: 60%
- Activity (Echinochloa oryzicola [2]): 40%
- Activity [3]: 100%
- Activity [4]: 100%
- Activity (Cyperus difformis [5]): 100%
- Activity [6]: 100%
- Activity (Cyperus difformis [7]): 60%
- Activity (Pontederia vaginalis [8]): 40%
- Activity (Pontederia vaginalis [9]): 100%
- Activity (Echinochloa oryzicola [10]): 100%

Compound: C#CCOCCN(C(=O)CCl)C(=C(C)C)c1ccccc1
- Activity [1]: 80%
- Activity (Echinochloa oryzicola [2]): 100%
- Activity [3]: 100%
- Activity [4]: 100%
- Activity (Cyperus difformis [5]): 100%
- Activity [6]: 100%
- Activity (Cyperus difformis [7]): 100%
- Activity (Pontederia vaginalis [8]): 100%
- Activity (Pontederia vaginalis [9]): 100%
- Activity (Echinochloa oryzicola [10]): 100%

Compound: COC(CN(C(=O)CCl)C(=C(C)C)c1ccccc1)OC
- Activity [1]: 0%
- Activity (Echinochloa oryzicola [2]): 40%
- Activity [3]: 80% and 100%
- Activity [4]: 100%
- Activity (Cyperus difformis [5]): 100%
- Activity [6]: 100%
- Activity (Cyperus difformis [7]): 100%
- Activity (Pontederia vaginalis [8]): 0%
- Activity (Pontederia vaginalis [9]): 100%
- Activity (Echinochloa oryzicola [10]): 100%

Compound: COCCN(C(=O)CCl)C(=C(C)C)c1ccccc1
- Activity (Setaria viridis [11]): 100%
- Activity (Setaria viridis [12]): 80%
- Activity (Kummerowia striata [13]): 80%
- Activity (Poa annua [14]): 100%
- Activity [15]: 100%
- Activity [1]: 100%
- Activity (Echinochloa oryzicola [2]): 100%
- Activity [3]: 100%
- Activity (Kummerowia striata [16]): 80%
- Activity [4]: 100%
- Activity (Stellaria media [17]): 60%
- Activity (Cyperus difformis [5]): 100%
- Activity [6]: 100%
- Activity (Digitaria ciliaris [18]): 100%
- Activity (Cyperus difformis [7]): 100%
- Activity (Pontederia vaginalis [8]): 100%
- Activity (Pontederia vaginalis [9]): 100%
- Activity (Poa annua [19]): 100%
- Activity (Digitaria ciliaris [20]): 100%
- Activity (Stellaria media [21]): 80%
- Activity (Echinochloa oryzicola [10]): 100%
- Activity [22]: 60%

Compound: COCCN(C(=O)CCl)C(=C(C)C)c1ccc(Br)s1
- Activity [1]: 60%
- Activity (Echinochloa oryzicola [2]): 100%
- Activity [3]: 80%
- Activity [4]: 100%
- Activity (Cyperus difformis [5]): 100%
- Activity [6]: 100%
- Activity (Cyperus difformis [7]): 80%
- Activity (Pontederia vaginalis [8]): 60%
- Activity (Pontederia vaginalis [9]): 100%
- Activity (Echinochloa oryzicola [10]): 100%

Compound: COCCN(C(=O)CCl)C(=C(C)C)c1cccc(C)c1
- Activity [1]: 100%
- Activity (Echinochloa oryzicola [2]): 100%
- Activity [3]: 100%
- Activity [4]: 100%
- Activity (Cyperus difformis [5]): 100%
- Activity [6]: 100%
- Activity (Cyperus difformis [7]): 100%
- Activity (Pontederia vaginalis [8]): 100%
- Activity (Pontederia vaginalis [9]): 100%
- Activity (Echinochloa oryzicola [10]): 100%

Compound: CCc1cccc(CC)c1N(COC)C(=O)CCl [ALACHLOR]
- Activity (Setaria viridis [11]): 100%
- Activity (Setaria viridis [12]): 80%
- Activity (Kummerowia striata [13]): 60%
- Activity (Poa annua [14]): 100%
- Activity [15]: 100%
- Activity (Kummerowia striata [16]): 80%
- Activity (Stellaria media [17]): 40%
- Activity (Digitaria ciliaris [18]): 100%
- Activity (Poa annua [19]): 80%
- Activity (Digitaria ciliaris [20]): 100%
- Activity (Stellaria media [21]): 80%
- Activity [22]: 80%

Compound: COCCN(C(=O)CCl)C(=C(C)C)c1cccs1
- Activity [1]: 100%
- Activity (Echinochloa oryzicola [2]): 100%
- Activity [3]: 0%
- Activity [4]: 100%
- Activity (Cyperus difformis [5]): 100%
- Activity [6]: 100%
- Activity (Cyperus difformis [7]): 100%
- Activity (Pontederia vaginalis [8]): 100%
- Activity (Pontederia vaginalis [9]): 100%
- Activity (Echinochloa oryzicola [10]): 100%
